Data on 1 compound can be found in ChEMBL document CHEMBL4507276 (2021).

The target of data set [1] is 5-hydroxytryptamine receptor 2B (Homo sapiens) (UniProt P41595). The experiment in a line: 5HT2B/H AG Cerep selectivity data (BI). Particulars: filed as agonist, Compound concentration 20.0 uM; call rule not given here.
Data set [2] addresses Gastrin/cholecystokinin type B receptor (Homo sapiens) (UniProt P32239). As to the kind of experiment: CCKB/H Cerep selectivity data (BI). The conditions noted are these: Compound concentration 20.0 uM.
The target in data set [3] is Tyrosine-protein kinase Lyn (Homo sapiens) (UniProt P07948). The experiment in a line: LYNAKINASE(H) Cerep selectivity data (BI). Particulars: Compound concentration 20.0 uM.
Sequence of Tyrosine-protein kinase Lyn (Homo sapiens) (P07948 2-512 limits assumed): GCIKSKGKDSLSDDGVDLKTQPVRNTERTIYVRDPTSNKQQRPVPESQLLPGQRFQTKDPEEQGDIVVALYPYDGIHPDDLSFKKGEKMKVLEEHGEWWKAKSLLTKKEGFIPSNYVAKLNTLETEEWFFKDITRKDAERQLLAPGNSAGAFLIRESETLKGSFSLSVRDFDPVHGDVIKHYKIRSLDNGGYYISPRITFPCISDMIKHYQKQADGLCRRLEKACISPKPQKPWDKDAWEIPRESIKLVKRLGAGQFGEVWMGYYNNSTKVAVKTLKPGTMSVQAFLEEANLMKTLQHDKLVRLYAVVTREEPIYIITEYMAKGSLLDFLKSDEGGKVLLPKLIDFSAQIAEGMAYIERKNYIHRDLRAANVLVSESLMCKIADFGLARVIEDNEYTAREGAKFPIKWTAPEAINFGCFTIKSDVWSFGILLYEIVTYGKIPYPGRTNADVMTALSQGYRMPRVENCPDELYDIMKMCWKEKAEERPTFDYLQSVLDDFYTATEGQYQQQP
Data set [4] concerns the target Neuropeptide Y receptor type 1 (Homo sapiens) (UniProt P25929). As to the kind of experiment: Y1/HUM Cerep selectivity data (BI). Particulars: filed as antagonist, Compound concentration 20.0 uM.
For data set [5], the target named is Beta-1 adrenergic receptor (Homo sapiens) (UniProt P08588). The experiment in a line: BETA1/HU Eurofins-Panlabs selectivity data (BI). Particulars: Compound concentration 10.0 uM.
Sequence of Beta-1 adrenergic receptor (Homo sapiens) (P08588 whole entry, looked up): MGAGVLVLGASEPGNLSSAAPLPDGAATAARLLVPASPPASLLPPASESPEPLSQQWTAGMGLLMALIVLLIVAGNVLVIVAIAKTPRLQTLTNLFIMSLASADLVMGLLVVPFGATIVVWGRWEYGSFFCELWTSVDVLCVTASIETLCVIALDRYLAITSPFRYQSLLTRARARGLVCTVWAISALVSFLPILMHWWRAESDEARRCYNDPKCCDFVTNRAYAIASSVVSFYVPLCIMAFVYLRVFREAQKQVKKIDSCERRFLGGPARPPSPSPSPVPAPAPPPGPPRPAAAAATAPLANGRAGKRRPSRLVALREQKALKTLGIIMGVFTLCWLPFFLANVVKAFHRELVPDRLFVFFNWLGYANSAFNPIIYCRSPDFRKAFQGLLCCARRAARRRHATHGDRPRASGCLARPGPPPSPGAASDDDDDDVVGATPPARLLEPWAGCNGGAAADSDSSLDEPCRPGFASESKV
Data set [6] has as its target L-type Ca2+ channel (DHP site), Cav1.2 alpha-1C (Rattus norvegicus, UniProt P22002). The experiment in a line: CA+/DHPSI/RA Eurofins-Panlabs selectivity data (BI). Particulars: compound concentration 10 uM, read-out: % Ctrl.
In data set [7] the target is Voltage-dependent N-type calcium channel subunit alpha-1B (Rattus norvegicus) (UniProt Q02294). As to the kind of experiment: CA+/N/RA Eurofins-Panlabs selectivity data (BI). Particulars: Compound concentration 10.0 uM.
Data set [8] has as its target Calcium/calmodulin-dependent protein kinase type 1 (Homo sapiens) (UniProt Q14012). The experiment in a line: CAMK1_A Invitrogen selectivity data (BI). Particulars: Compound concentration 3.0 uM.
The target of data set [9] is T1, Inhibitor of nuclear factor kappa-B kinase subunit alpha (Homo sapiens) (UniProt O15111).
T1 sequence (whole entry): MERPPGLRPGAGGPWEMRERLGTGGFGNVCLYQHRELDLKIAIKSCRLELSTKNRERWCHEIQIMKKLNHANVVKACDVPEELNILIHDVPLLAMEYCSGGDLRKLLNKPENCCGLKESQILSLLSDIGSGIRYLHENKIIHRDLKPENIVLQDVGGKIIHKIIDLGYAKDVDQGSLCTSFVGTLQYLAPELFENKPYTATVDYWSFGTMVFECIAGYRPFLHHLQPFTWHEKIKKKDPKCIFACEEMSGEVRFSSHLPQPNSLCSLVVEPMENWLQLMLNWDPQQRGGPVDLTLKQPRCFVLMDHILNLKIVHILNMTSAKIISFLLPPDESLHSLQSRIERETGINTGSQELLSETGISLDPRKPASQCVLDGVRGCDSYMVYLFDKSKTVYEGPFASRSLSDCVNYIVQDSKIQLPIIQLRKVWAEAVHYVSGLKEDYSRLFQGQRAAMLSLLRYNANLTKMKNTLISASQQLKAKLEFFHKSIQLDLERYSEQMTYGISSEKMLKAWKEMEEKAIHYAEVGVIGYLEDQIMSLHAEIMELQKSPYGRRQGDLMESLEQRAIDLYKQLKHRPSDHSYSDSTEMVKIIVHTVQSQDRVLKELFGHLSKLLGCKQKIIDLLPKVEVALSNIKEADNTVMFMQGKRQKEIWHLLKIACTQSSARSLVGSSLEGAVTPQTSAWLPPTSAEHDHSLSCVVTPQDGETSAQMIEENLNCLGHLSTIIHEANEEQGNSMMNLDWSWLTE
As to the kind of experiment: CHUK_IKKA Invitrogen selectivity data (BI). Particulars: Compound concentration 3.0 uM.

In data set [10] the target is Tyrosine-protein kinase Fes/Fps (Homo sapiens) (UniProt P07332). The experiment in a line: FES Invitrogen selectivity data (BI). Particulars: Compound concentration 3.0 uM.
Sequence of Tyrosine-protein kinase Fes/Fps (Homo sapiens) (P07332 whole entry): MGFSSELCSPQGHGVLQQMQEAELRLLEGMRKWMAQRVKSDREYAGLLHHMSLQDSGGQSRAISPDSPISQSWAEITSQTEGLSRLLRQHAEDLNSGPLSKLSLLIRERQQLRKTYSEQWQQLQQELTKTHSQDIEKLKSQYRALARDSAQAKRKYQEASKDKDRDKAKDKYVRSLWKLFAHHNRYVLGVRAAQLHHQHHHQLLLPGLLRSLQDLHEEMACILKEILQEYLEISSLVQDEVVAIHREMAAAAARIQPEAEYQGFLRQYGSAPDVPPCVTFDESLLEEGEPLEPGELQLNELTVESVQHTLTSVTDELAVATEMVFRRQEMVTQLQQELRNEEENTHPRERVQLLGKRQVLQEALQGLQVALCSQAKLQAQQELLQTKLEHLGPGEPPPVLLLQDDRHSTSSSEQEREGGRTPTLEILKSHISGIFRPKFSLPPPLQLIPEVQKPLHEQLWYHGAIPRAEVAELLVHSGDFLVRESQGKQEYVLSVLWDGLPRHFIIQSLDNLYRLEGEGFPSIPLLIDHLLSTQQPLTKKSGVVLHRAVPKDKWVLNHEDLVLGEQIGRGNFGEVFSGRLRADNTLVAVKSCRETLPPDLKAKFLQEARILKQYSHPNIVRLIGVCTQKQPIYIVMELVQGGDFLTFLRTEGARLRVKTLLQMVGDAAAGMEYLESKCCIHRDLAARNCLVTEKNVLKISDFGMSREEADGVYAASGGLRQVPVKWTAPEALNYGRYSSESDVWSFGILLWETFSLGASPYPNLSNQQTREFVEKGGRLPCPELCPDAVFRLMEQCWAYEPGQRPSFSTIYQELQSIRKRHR
Data set [11] deals with Fibroblast growth factor receptor 3 (Homo sapiens), P22607 [K650E]. The experiment in a line: FGFR3 K650E Invitrogen selectivity data (BI). Particulars: Compound concentration 3.0 uM.
Data set [12] addresses Dual specificity mitogen-activated protein kinase kinase 1 (Homo sapiens) (UniProt Q02750). The experiment in a line: MAP2K1 Invitrogen selectivity data (BI). Particulars: Compound concentration 3.0 uM.
In data set [13] the target is T2, Dual specificity mitogen-activated protein kinase kinase 3 (Homo sapiens) (UniProt P46734).
T2 sequence (whole entry): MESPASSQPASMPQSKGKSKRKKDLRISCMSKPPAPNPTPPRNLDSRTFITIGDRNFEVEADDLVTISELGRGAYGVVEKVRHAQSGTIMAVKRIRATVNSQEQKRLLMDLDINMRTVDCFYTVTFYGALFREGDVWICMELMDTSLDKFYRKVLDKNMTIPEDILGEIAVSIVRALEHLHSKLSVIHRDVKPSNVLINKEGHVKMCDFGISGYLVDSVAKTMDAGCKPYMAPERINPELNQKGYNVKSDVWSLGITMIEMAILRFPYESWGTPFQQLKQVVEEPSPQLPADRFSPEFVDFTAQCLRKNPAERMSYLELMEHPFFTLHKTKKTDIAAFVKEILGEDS
The experiment in a line: MAP2K3 Invitrogen selectivity data (BI). The conditions noted are these: Compound concentration 3.0 uM.

Data set [14] has as its target Mitogen-activated protein kinase kinase kinase 11 (Homo sapiens) (UniProt Q16584). The experiment in a line: MAP3K11 Invitrogen selectivity data (BI). The conditions noted are these: Compound concentration 3.0 uM.
In data set [15] the target is Mitogen-activated protein kinase kinase kinase 8 (Homo sapiens) (UniProt P41279). As to the kind of experiment: MAP3K8 Invitrogen selectivity data (BI). Particulars: Compound concentration 3.0 uM.
The target of data set [16] is Serine/threonine-protein kinase PLK3 (Homo sapiens) (UniProt Q9H4B4). As to the kind of experiment: PLK3 Invitrogen selectivity data (BI). The conditions noted are these: Compound concentration 3.0 uM.
The test system of data set [17] is Proto-oncogene tyrosine-protein kinase receptor Ret (Homo sapiens), P07949 [V804L]. The experiment in a line: RET V804L Invitrogen selectivity data (BI). The conditions noted are these: Compound concentration 3.0 uM.
Sequence of Proto-oncogene tyrosine-protein kinase receptor Ret (Homo sapiens), P07949 [V804L] (P07949 whole entry V804L): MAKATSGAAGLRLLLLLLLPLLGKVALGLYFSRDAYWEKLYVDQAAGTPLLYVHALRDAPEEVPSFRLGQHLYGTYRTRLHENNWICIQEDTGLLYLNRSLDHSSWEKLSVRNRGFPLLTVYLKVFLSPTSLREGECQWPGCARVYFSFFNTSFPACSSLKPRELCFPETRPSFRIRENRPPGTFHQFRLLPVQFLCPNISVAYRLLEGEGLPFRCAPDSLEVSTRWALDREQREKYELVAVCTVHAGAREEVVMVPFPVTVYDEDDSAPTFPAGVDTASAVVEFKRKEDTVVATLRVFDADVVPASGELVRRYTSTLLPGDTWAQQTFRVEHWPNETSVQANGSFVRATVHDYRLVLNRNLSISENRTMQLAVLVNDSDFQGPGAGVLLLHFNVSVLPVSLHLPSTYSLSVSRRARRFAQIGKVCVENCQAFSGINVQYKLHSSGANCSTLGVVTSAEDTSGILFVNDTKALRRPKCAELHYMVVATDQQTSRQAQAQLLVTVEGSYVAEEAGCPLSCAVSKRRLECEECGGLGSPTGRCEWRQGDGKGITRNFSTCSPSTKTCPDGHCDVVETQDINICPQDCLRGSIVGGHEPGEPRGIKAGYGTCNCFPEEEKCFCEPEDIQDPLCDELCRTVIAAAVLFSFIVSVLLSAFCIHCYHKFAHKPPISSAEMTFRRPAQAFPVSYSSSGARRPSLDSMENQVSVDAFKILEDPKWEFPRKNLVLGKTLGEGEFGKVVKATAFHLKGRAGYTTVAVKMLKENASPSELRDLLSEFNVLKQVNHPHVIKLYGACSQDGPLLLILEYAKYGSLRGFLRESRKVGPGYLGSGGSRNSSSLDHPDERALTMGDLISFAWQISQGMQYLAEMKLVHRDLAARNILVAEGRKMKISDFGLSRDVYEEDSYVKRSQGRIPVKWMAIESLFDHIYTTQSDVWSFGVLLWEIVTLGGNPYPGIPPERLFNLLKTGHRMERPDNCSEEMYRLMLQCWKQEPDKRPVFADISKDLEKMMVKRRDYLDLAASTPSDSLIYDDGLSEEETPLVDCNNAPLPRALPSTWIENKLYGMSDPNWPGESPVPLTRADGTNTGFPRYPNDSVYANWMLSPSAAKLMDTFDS
For data set [18], the target named is Angiopoietin-1 receptor (Homo sapiens) (UniProt Q02763). The experiment in a line: TEK Invitrogen selectivity data (BI). The conditions noted are these: Compound concentration 3.0 uM.
Sequence of Angiopoietin-1 receptor (Homo sapiens) (Q02763 whole entry): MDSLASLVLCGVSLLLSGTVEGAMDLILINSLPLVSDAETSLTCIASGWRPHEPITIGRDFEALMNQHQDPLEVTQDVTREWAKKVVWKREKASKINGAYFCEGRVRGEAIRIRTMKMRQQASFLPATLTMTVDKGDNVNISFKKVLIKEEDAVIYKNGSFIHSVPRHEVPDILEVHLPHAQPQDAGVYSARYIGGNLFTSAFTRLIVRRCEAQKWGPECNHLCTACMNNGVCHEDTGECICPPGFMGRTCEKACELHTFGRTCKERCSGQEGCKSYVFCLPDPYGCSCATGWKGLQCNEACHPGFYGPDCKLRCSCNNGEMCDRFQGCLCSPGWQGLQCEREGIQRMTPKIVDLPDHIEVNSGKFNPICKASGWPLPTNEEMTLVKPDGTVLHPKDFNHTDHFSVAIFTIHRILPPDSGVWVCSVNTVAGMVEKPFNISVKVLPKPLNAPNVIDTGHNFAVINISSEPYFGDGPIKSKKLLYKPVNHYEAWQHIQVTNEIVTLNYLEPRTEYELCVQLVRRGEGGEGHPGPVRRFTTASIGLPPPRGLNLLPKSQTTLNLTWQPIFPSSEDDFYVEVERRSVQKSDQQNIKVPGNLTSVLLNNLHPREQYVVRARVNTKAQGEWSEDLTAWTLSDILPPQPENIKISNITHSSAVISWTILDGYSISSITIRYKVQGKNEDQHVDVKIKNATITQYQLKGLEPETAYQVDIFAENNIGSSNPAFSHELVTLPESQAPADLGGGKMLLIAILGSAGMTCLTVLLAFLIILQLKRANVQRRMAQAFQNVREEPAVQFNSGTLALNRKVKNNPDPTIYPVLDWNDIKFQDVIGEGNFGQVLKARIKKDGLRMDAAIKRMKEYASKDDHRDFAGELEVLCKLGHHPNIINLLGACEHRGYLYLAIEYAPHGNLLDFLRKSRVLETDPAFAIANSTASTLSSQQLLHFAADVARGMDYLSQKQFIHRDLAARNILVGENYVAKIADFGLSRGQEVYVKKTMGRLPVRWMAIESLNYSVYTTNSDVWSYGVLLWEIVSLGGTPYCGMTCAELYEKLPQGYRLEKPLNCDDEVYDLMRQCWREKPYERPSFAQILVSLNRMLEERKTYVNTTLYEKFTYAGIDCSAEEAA
Data set [19] concerns the target T3, Muscarinic acetylcholine receptor M1 (Homo sapiens) (UniProt P11229).
T3 sequence (whole entry): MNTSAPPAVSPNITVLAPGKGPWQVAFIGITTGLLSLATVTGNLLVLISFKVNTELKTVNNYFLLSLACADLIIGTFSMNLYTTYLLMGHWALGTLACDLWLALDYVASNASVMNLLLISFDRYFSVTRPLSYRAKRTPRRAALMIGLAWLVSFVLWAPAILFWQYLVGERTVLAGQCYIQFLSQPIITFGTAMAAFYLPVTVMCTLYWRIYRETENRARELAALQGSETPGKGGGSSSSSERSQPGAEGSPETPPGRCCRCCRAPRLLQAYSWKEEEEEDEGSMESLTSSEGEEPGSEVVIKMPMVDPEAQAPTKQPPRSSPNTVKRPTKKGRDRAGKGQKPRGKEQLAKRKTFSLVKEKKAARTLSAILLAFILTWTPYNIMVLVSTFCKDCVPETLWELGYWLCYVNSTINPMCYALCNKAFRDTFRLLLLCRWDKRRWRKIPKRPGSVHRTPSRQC
Particulars: Compound concentration 10.0 uM.

The target in data set [20] is Muscarinic acetylcholine receptor M3 (Homo sapiens) (UniProt P20309). The conditions noted are these: Compound concentration 10.0 uM.
Sequence of Muscarinic acetylcholine receptor M3 (Homo sapiens) (P20309 whole entry, looked up): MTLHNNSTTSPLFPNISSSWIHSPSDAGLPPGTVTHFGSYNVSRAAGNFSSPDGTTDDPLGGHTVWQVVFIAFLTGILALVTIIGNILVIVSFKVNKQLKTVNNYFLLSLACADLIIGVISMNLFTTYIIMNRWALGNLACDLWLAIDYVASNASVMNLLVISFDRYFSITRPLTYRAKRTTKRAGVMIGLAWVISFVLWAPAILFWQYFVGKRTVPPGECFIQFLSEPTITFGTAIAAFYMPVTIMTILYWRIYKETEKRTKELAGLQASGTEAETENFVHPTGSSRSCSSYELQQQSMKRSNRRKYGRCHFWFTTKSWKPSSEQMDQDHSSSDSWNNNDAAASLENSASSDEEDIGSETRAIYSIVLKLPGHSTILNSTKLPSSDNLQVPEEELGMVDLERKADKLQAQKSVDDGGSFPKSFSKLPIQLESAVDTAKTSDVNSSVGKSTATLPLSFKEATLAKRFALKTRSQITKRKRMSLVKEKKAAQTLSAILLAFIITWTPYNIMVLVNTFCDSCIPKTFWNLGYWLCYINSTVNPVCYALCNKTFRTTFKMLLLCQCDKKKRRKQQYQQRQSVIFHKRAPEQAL
The target in data set [21] is 3-phosphoinositide-dependent protein kinase 1 (Homo sapiens) (UniProt O15530). As to the kind of experiment: PDK1DIRECT Invitrogen selectivity data (BI). Particulars: Compound concentration 3.0 uM.

Sequence of Dual specificity mitogen-activated protein kinase kinase 1 (Homo sapiens) (Q02750 whole entry): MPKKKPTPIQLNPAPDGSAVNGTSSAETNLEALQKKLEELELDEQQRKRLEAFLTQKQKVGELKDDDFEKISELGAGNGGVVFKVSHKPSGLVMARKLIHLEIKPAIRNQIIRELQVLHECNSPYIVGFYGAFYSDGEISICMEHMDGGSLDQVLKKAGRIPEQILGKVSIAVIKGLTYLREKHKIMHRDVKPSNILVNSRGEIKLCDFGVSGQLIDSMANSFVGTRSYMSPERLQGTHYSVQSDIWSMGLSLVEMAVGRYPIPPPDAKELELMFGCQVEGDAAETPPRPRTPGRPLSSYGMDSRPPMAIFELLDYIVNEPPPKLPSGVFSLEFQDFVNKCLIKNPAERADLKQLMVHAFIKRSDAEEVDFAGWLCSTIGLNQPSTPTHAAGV

Usually inhibition stands for the change of the read-out against control, counted positive when it falls. For the compound `CN(C)C(=O)Cn1cc(-c2nc([C@@](C)(c3ccc(-c4cnc(N)nc4)cc3)C3CC3)no2)cn1` [BI 665915], the residual activity in [1] was 103%; in data set [2], 119%; in data set [3], 87%; in [4] it was 104%; in [5], 103%; in data set [7], 95%. For the same compound, the residual activity in [8] is 102%; in data set [9], 99.5%; in [10] it was 94.5%; in data set [11], 91%; in [12], 98%; in [13], 101%. The residual activity was 96% in data set [14]; 93.5% in data set [15]; 98% in data set [16]; 72% in data set [17]; 97% in data set [18]; 97% in data set [21]. In data set [6], the activity at 10 µM was 98% (not active). In addition, the results for the inhibition in data set [19] and in [20] were -4.93% and 7.43%, respectively.
